Laboratory results: patent US7507727B2, “Substituted quinobenzoxazine analogs and methods of using thereof” (Cylene Pharmaceuticals, Inc., priority 2003, dated 2009)

What follows are molecules tested against c-Myc template DNA (c-myc quadruplex) (assay: Quadruplex binding / stop assay (Taq polymerase arrest, capillary electrophoresis)). Conditions: read-out: S DATA; Table 1D, stop assay data.

| IC50 | SMILES |
| --- | --- |
| 3 µM | CN1CCCC1CCNC(=O)c1cn2c3c(c(NC[C@H]4CCCO4)c(F)cc3c1=O)Oc1cc3ccccc3cc1-2 (stereo partly shown) [compound 1736] |
| 1.75 µM | CN1CCCC1CCNc1ccc2c(=O)c(C(=O)NC3CC(C)(C)NC(C)(C)C3)cn3c2c1Oc1cc2ccccc2cc1-3 (stereo not shown) [compound 1525] |
| 1 µM | CN(C)CCCCNc1ccc2c(=O)c(C(=O)NCCN3CCCC3)cn3c2c1Oc1cc2ccccc2cc1-3 [compound 1540] |
| 1.75 µM | CN1CCCC1CCNC(=O)c1cn2c3c(c(N4CCC(NC(=O)OC(C)(C)C)CC4)c(F)cc3c1=O)Oc1cc3ccccc3cc1-2 (stereo not shown) [compound 1498] |
| > 15 µM | CN1CCCC1CCNC(=O)c1cn2c3c(c(NCCN4CCOCC4)ccc3c1=O)Oc1cc3ccccc3cc1-2 (stereo not shown) [compound 1547] |
| 1.75 µM | CN1CCCC1CCNC(=O)c1cn2c3c(c(N4CCNC(c5cccnc5)C4)c(F)cc3c1=O)Oc1cc3ccccc3cc1-2 (stereo not shown) [compound 1513] |
| 0.75 µM | CN1CCCC1CCNC(=O)c1cn2c3c(c(N(C)C4CCNC4)c(F)cc3c1=O)Oc1cc3ccccc3cc1-2 (stereo not shown) [compound 1502] |
| > 15 µM | CC1(C)CC(NC(=O)c2cn3c4c(c(NCCCN5CCOCC5)ccc4c2=O)Oc2cc4ccccc4cc2-3)CC(C)(C)N1 [compound 1531] |

Further lines, the molecule ahead of its results:

| SMILES | IC50 |
| --- | --- |
| O=C(NCCN1CCCC1)c1cn2c3c(c(SCCc4cnccn4)c(F)cc3c1=O)Oc1cc3ccccc3cc1-2 [compound 1767] | 3.2 µM |
| CN(C)CCCCNC(=O)c1cn2c3c(c(NCCN4CCCC4)c(F)cc3c1=O)Oc1ccccc1-2 [compound 1598] | > 15 µM |
| CN(C)CC(C)(C)CNC(=O)c1cn2c3c(c(N4CCC(N)C4)c(F)cc3c1=O)Oc1ccccc1-2 (stereo not shown) [compound 1625] | > 15 µM |
| CN1CCCC1CCNC(=O)c1cn2c3c(c(N4CCN(C(=O)OC(C)(C)C)CC4)c(F)cc3c1=O)Oc1cc(Cl)ccc1-2 (stereo not shown) [compound 1819] | 10 µM |
| CC1(C)CC(NC(=O)c2cn3c4c(c(N5CCC(N)C5)c(F)cc4c2=O)Oc2ccccc2-3)CC(C)(C)N1 (stereo not shown) [compound 1626] | > 15 µM |
| O=C(NCCN1CCCC1)c1cn2c3c(c(N4CCN(c5ncccn5)CC4)c(F)cc3c1=O)Oc1cc(Cl)ccc1-2 [compound 1813] | 5.1 µM |
| COc1ccc(CCNc2c(F)cc3c(=O)c(C(=O)N(C)CCc4ccccn4)cn4c3c2Oc2cc3ccccc3cc2-4)cc1OC [compound 1759] | 10 µM |
| CN(C)c1ccccc1CNC(=O)c1cn2c3c(c(N4CCC(N)C4)c(F)cc3c1=O)Oc1cc3ccccc3cc1-2 (stereo not shown) [compound 1715] | > 15 µM |
| O=C(NCCN1CCCC1)c1cn2c3c(c(SCCc4cnccn4)c(F)cc3c1=O)Oc1ccc(Cl)cc1-2 [compound 1783] | > 15 µM |

Same assay, conditions: read-out: Stop Data c-Myc μM; concentration at which 50% of the DNA was arrested (arrested:full-length 1:1)

| IC50 | SMILES |
| --- | --- |
| 2.5 µM | CN1CCCC1CCNC(=O)c1cn2c3c(c(NCCCN4CCOCC4)c(F)cc3c1=O)Oc1cc3ccccc3cc1-2 (stereo not shown) [compound 51] |
| 1.75 µM | CN1CCCC1CCNC(=O)c1cn2c3c(c(NCCCN4CCOCC4)c(F)cc3c1=O)Oc1c-2ccc2ccccc12 (stereo not shown) [compound 128] |
| 1.75 µM | CN1CCCC1CCNC(=O)c1cn2c3c(c(N4CCC(N)C4)c(F)c(N)c3c1=O)Oc1cc3ccccc3cc1-2 (stereo not shown) [compound 234] |
| 0.5 µM | CN1CCCC1CCNc1c(F)cc2c(=O)c(C(=O)NCCN3CCCC3)cn3c2c1Oc1cc2ccccc2cc1-3 (stereo not shown) [compound 488] |
| 2.5 µM | CCN1CCCC1CNc1c(F)cc2c(=O)c(C(=O)N3CCOCC3)cn3c2c1Oc1cc2ccccc2cc1-3 (stereo not shown) [compound 42] |
| 0.75 µM | CN(C)c1cccc(CNc2c(F)cc3c(=O)c(C(=O)NCCC4CCCN4C)cn4c3c2Oc2cc3ccccc3cc2-4)c1 (stereo not shown) [compound 464] |
| 2.5 µM | O=C(NCCCN1CCOCC1)c1cn2c3c(c(NCCN4CCCC4)c(F)cc3c1=O)Oc1cc3ccccc3cc1-2 [compound 69] |
| 1.75 µM | O=C(NCCCN1CCOCC1)c1cn2c3c(c(NCCN4CCCC4)ccc3c1=O)Oc1cc3ccccc3cc1-2 [compound 267] |
| 1 µM | CN1CCCC1CCNC(=O)c1cn2c3c(c(NCCCn4ccnc4)c(F)cc3c1=O)Oc1cc3ccccc3cc1-2 (stereo not shown) [compound 335] |
| 1.75 µM | O=C(NCCN1CCCC1)c1cn2c3c(c(NCCCN4CCOCC4)ccc3c1=O)Oc1cc3ccccc3cc1-2 [compound 272] |
| 0.75 µM | CCOC(CCCNc1c(F)cc2c(=O)c(C(=O)NCCC3CCCN3C)cn3c2c1Oc1cc2ccccc2cc1-3)OCC (stereo not shown) [compound 463] |
| 0.75 µM | CN1CCCC1CCNC(=O)c1cn2c3c(c(N4CCC(c5ccccn5)C4)c(F)cc3c1=O)Oc1cc3ccccc3cc1-2 (stereo not shown) [compound 442] |

The next lines start with the molecule.

| SMILES | IC50 |
| --- | --- |
| CN1CCN(CCCNC(=O)c2cn3c4cc5c(=O)c6ccccc6c(=O)c5cc4oc4c(N5CCN(C)CC5)c(F)cc(c2=O)c43)CC1 [compound 352] | 0.9 µM |
| CC(C)(C)OC(=O)NC1CCN(c2c(F)c(N)c3c(=O)c(C(=O)NCCCN4CCOCC4)cn4c3c2Oc2cc3ccccc3cc2-4)C1 (stereo not shown) [compound 226] | 1.75 µM |
| O=C(Nc1nnc(C(F)(F)F)s1)c1cn2c3c(c(NCCN4CCCC4)c(F)cc3c1=O)Oc1ccccc1-2 [compound 46] | 2.5 µM |
| CN(C)CCCCNC(=O)c1cn2c3cc4oc5cc([N+](=O)[O-])ccc5[nH]c4cc3oc3c(NCCC4CCCN4C)c(F)cc(c1=O)c32 (stereo not shown) [compound 585] | 0.18 µM |
| O=C(NCCN1CCOCC1)c1cn2c3cc4c(cc3oc3c(NCCN5CCOCC5)c(F)cc(c1=O)c32)c(=O)c1ccccc14 [compound 321] | 1 µM |
| CC(C)(C)OC(=O)NC1CCN(C(=O)c2cn3c4c(c(N5CCC(NC(=O)OC(C)(C)C)C5)c(F)c(N)c4c2=O)Oc2cc4ccccc4cc2-3)C1 (stereo not shown) [compound 227] | 1.75 µM |
| O=C(CCN1CCOCC1)N[C@@H]1CCN(c2c(F)cc3c(=O)c(C(=O)NCCN4CCCC4)cn4c3c2Oc2cc3c(cc2-4)oc2ccccc23)C1 [compound 404] | 0.75 µM |
| CN1CCN(CCCNC(=O)c2cn3c4c(c(NCCCN5CCN(C)CC5)c(F)cc4c2=O)Oc2cc4c(cc2-3)oc2ccccc24)CC1 [compound 151] | 1.75 µM |
| CN1CCN(C(=O)c2cn3c4c(c(NCCC5CCCN5C)c(F)cc4c2=O)Oc2c-3ccc3ccccc23)CC1 (stereo not shown) [compound 75] | 2.5 µM |
| CN1CCCC1CCNC(=O)c1cn2c3c(c(C4C[C@@H](N)[C@H](c5ccccc5)C4)c(F)cc3c1=O)Oc1cc3ccccc3cc1-2 (stereo partly shown) [compound 458] | 0.75 µM |
| CN(C)CCCCNc1c(F)cc2c(=O)c(C(=O)N3CC[C@H](N)C3)cn3c4cc5c(cc4oc1c23)c(=O)c1ccccc15 [compound 217] | 1.75 µM |
| CN1CCCC1CCNC(=O)c1cn2c3cc4c(=O)c5ccccc5c(=O)c4cc3oc3c(N4CCC(N)C4)c(F)cc(c1=O)c32 (stereo not shown) [compound 489] | 0.5 µM |
| CCCCN(CCCC)CCCNc1c(F)cc2c(=O)c(C(=O)N3CCOCC3)cn3c2c1Oc1cc2ccccc2cc1-3 [compound 45] | 2.5 µM |
| O=C(O)c1cn2c3cc4oc5cc([N+](=O)[O-])ccc5[nH]c4cc3oc3c(NCCN4CCCC4)c(F)cc(c1=O)c32 [compound 17] | 0.75 µM |
| NC1CCN(C(=O)c2cn3c4cc5c(=O)c6ccccc6c(=O)c5cc4oc4c(NCCCN5CCOCC5)c(F)cc(c2=O)c43)C1 (stereo not shown) [compound 94] | 2.5 µM |
| CCCCN1CCC(CNC(=O)c2cn3c4c(c(N5CCC(N)C5)c(F)cc4c2=O)Oc2cc4ccccc4cc2-3)CC1 (stereo not shown) [compound 302] | 1.75 µM |
| CN1CCCC1CCNCC(=O)N[C@@H]1CCN(c2c(F)cc3c(=O)c(C(=O)N4CCCCC4)cn4c3c2Oc2cc3c(cc2-4)oc2ccccc23)C1 (stereo partly shown) [compound 413] | 0.75 µM |
